Test results published in PubChem BioAssay (NCI).
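Where inhibition never reached the appropriate level, the endpoint shown equals the highest concentration tested. Otherwise, values were interpolated linearly from a five-concentration, 48-hour dose response in 96-well plates. TGI: concentration producing complete growth inhibition.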

Experiments:
Assay in all cases: NCI anticancer screen, dose series, 48 h
NCI-H23 lung = system: NCI-H23 lung
A549 NSCLC = system: A549 NSCLC
OVCAR-4 ovarian = system: OVCAR-4 ovarian
UACC-62 melanoma = system: UACC-62 melanoma
UACC-257 melanoma = system: UACC-257 melanoma
SW-620 colon = system: SW-620 colon
NCI-H460 lung = system: NCI-H460 lung
HOP-62 NSCLC = system: HOP-62 NSCLC
U251 CNS = system: U251 CNS
MOLT-4 leukemia = system: MOLT-4 leukemia
CAKI-1 renal = system: CAKI-1 renal
SF-539 CNS = system: SF-539 CNS
SK-MEL-28 melanoma = system: SK-MEL-28 melanoma
786-0 renal = system: 786-0 renal
PC-3 prostate = system: PC-3 prostate
BT-549 breast = system: BT-549 breast
EKVX NSCLC = system: EKVX NSCLC
MCF7 breast = system: MCF7 breast
IGROV1 ovarian = system: IGROV1 ovarian
A498 renal = system: A498 renal
SK-OV-3 ovarian = system: SK-OV-3 ovarian
RXF 393 renal = system: RXF 393 renal
ACHN renal = system: ACHN renal
MDA-MB-435 = system: MDA-MB-435
SK-MEL-2 melanoma = system: SK-MEL-2 melanoma
SF-268 CNS = system: SF-268 CNS
OVCAR-3 ovarian = system: OVCAR-3 ovarian
DU-145 prostate = system: DU-145 prostate
MDA-N = system: MDA-N
HCT-116 colon = system: HCT-116 colon
TK-10 renal = system: TK-10 renal
OVCAR-8 ovarian = system: OVCAR-8 ovarian
SK-MEL-5 melanoma = system: SK-MEL-5 melanoma
NCI-H522 lung = system: NCI-H522 lung
T-47D breast = system: T-47D breast
HCT-15 colon = system: HCT-15 colon
HCC-2998 colon = system: HCC-2998 colon
K-562 leukemia = system: K-562 leukemia
HOP-92 NSCLC = system: HOP-92 NSCLC
SNB-19 CNS = system: SNB-19 CNS
SF-295 CNS = system: SF-295 CNS
M14 melanoma = system: M14 melanoma
MDA-MB-231 breast = system: MDA-MB-231 breast
OVCAR-5 ovarian = system: OVCAR-5 ovarian
HS 578T breast = system: HS 578T breast
HT29 colon = system: HT29 colon
UO-31 renal = system: UO-31 renal
CCRF-CEM leukemia = system: CCRF-CEM leukemia
MALME-3M melanoma = system: MALME-3M melanoma
LOX IMVI melanoma = system: LOX IMVI melanoma
RPMI-8226 leukemia = system: RPMI-8226 leukemia
KM12 colon = system: KM12 colon
NCI-H226 lung = system: NCI-H226 lung
COLO 205 colon = system: COLO 205 colon
SN12C renal = system: SN12C renal
SNB-75 CNS = system: SNB-75 CNS
NCI/ADR-RES ovarian = system: NCI/ADR-RES ovarian
HL-60(TB) leukemia = system: HL-60(TB) leukemia

CC(C)=NNC1=NC(C)(C)P(=O)(NNc2ncccn2)S1 (stereo not given)
TGI (NCI-H23 lung): > 100 µM
TGI (A549 NSCLC): > 100 µM
TGI (OVCAR-4 ovarian): > 100 µM
TGI (UACC-62 melanoma): > 100 µM
TGI (UACC-257 melanoma): > 100 µM
TGI (SW-620 colon): > 100 µM
TGI (NCI-H460 lung): > 100 µM
TGI (HOP-62 NSCLC): > 100 µM
TGI (U251 CNS): > 100 µM
TGI (MOLT-4 leukemia): > 100 µM
TGI (CAKI-1 renal): > 100 µM
TGI (SF-539 CNS): > 100 µM
TGI (SK-MEL-28 melanoma): > 100 µM
TGI (786-0 renal): > 100 µM
TGI (PC-3 prostate): > 100 µM
TGI (BT-549 breast): > 100 µM
TGI (EKVX NSCLC): > 100 µM
TGI (MCF7 breast): > 100 µM
TGI (IGROV1 ovarian): > 100 µM
TGI (A498 renal): > 100 µM
TGI (SK-OV-3 ovarian): > 100 µM
TGI (RXF 393 renal): > 100 µM
TGI (ACHN renal): > 100 µM
TGI (MDA-MB-435): > 100 µM
TGI (SK-MEL-2 melanoma): > 100 µM
TGI (SF-268 CNS): > 100 µM
TGI (OVCAR-3 ovarian): > 100 µM
TGI (DU-145 prostate): > 100 µM
TGI (MDA-N): > 100 µM
TGI (HCT-116 colon): > 100 µM
TGI (TK-10 renal): > 100 µM
TGI (OVCAR-8 ovarian): > 100 µM
TGI (SK-MEL-5 melanoma): > 100 µM
TGI (NCI-H522 lung): > 100 µM
TGI (T-47D breast): > 100 µM
TGI (HCT-15 colon): > 100 µM
TGI (HCC-2998 colon): > 100 µM
TGI (K-562 leukemia): > 100 µM
TGI (HOP-92 NSCLC): > 100 µM
TGI (SNB-19 CNS): > 100 µM
TGI (SF-295 CNS): > 100 µM
TGI (M14 melanoma): > 100 µM
TGI (MDA-MB-231 breast): > 100 µM
TGI (OVCAR-5 ovarian): > 100 µM
TGI (HS 578T breast): > 100 µM
TGI (HT29 colon): > 100 µM
TGI (UO-31 renal): > 100 µM

COc1ccc(N=NC(=O)NC(CC(C)C)C(=O)NC(CC(C)C)C(=O)O)cc1 (stereo not given)
TGI (NCI-H23 lung): > 100 µM
TGI (CCRF-CEM leukemia): > 100 µM
TGI (A549 NSCLC): > 100 µM
TGI (OVCAR-4 ovarian): > 100 µM
TGI (UACC-62 melanoma): > 100 µM
TGI (UACC-257 melanoma): > 100 µM
TGI (SW-620 colon): > 100 µM
TGI (NCI-H460 lung): > 100 µM
TGI (MALME-3M melanoma): > 100 µM
TGI (HOP-62 NSCLC): > 100 µM
TGI (U251 CNS): > 100 µM
TGI (LOX IMVI melanoma): > 100 µM
TGI (MOLT-4 leukemia): > 100 µM
TGI (CAKI-1 renal): > 100 µM
TGI (RPMI-8226 leukemia): > 100 µM
TGI (SF-539 CNS): 57.6 µM
TGI (SK-MEL-28 melanoma): > 100 µM
TGI (KM12 colon): > 100 µM
TGI (786-0 renal): > 100 µM
TGI (PC-3 prostate): > 100 µM
TGI (BT-549 breast): > 100 µM
TGI (EKVX NSCLC): > 100 µM
TGI (MCF7 breast): > 100 µM
TGI (IGROV1 ovarian): > 100 µM
TGI (A498 renal): > 100 µM
TGI (RXF 393 renal): > 100 µM
TGI (ACHN renal): 80.2 µM
TGI (MDA-MB-435): > 100 µM
TGI (SF-268 CNS): > 100 µM
TGI (OVCAR-3 ovarian): > 100 µM
TGI (DU-145 prostate): > 100 µM
TGI (MDA-N): > 100 µM
TGI (HCT-116 colon): > 100 µM
TGI (TK-10 renal): > 100 µM
TGI (OVCAR-8 ovarian): > 100 µM
TGI (SK-MEL-5 melanoma): > 100 µM
TGI (NCI-H226 lung): > 100 µM
TGI (COLO 205 colon): 49.5 µM
TGI (NCI-H522 lung): > 100 µM
TGI (SN12C renal): > 100 µM
TGI (T-47D breast): > 100 µM
TGI (HCT-15 colon): > 100 µM
TGI (HCC-2998 colon): > 100 µM
TGI (K-562 leukemia): 80.3 µM
TGI (SNB-75 CNS): > 100 µM
TGI (HOP-92 NSCLC): > 100 µM
TGI (SNB-19 CNS): > 100 µM
TGI (SF-295 CNS): > 100 µM
TGI (M14 melanoma): > 100 µM
TGI (NCI/ADR-RES ovarian): > 100 µM
TGI (OVCAR-5 ovarian): > 100 µM
TGI (HS 578T breast): > 100 µM
TGI (HL-60(TB) leukemia): > 100 µM
TGI (HT29 colon): > 100 µM
TGI (UO-31 renal): > 100 µM

COc1cc(/C=N/NC(=O)c2c(Cl)c(Cl)c(Cl)c(Cl)c2-c2nc3ccccc3[nH]2)ccc1O
TGI (NCI-H23 lung): 55.3 µM
TGI (CCRF-CEM leukemia): > 100 µM
TGI (A549 NSCLC): > 100 µM
TGI (UACC-62 melanoma): 32.4 µM
TGI (UACC-257 melanoma): 87.6 µM
TGI (SW-620 colon): > 100 µM
TGI (NCI-H460 lung): 57 µM
TGI (MALME-3M melanoma): 52.9 µM
TGI (HOP-62 NSCLC): 75.8 µM
TGI (LOX IMVI melanoma): 61.1 µM
TGI (MOLT-4 leukemia): > 100 µM
TGI (CAKI-1 renal): 49.8 µM
TGI (SF-539 CNS): > 100 µM
TGI (SK-MEL-28 melanoma): > 100 µM
TGI (KM12 colon): 74.9 µM
TGI (786-0 renal): > 100 µM
TGI (PC-3 prostate): > 100 µM
TGI (BT-549 breast): 67.2 µM
TGI (EKVX NSCLC): 82.6 µM
TGI (MCF7 breast): 44.7 µM
TGI (IGROV1 ovarian): > 100 µM
TGI (A498 renal): 61.4 µM
TGI (SK-OV-3 ovarian): > 100 µM
TGI (RXF 393 renal): 46.4 µM
TGI (ACHN renal): 62.5 µM
TGI (MDA-MB-435): 91.7 µM
TGI (SK-MEL-2 melanoma): 41.1 µM
TGI (SF-268 CNS): > 100 µM
TGI (OVCAR-3 ovarian): > 100 µM
TGI (DU-145 prostate): 56.5 µM
TGI (MDA-N): 75.7 µM
TGI (HCT-116 colon): 43.6 µM
TGI (OVCAR-8 ovarian): > 100 µM
TGI (SK-MEL-5 melanoma): 34.2 µM
TGI (NCI-H226 lung): 87.6 µM
TGI (COLO 205 colon): 73 µM
TGI (NCI-H522 lung): > 100 µM
TGI (SN12C renal): > 100 µM
TGI (T-47D breast): 15.9 µM
TGI (HCT-15 colon): 79.2 µM
TGI (HCC-2998 colon): 33.5 µM
TGI (K-562 leukemia): > 100 µM
TGI (SNB-75 CNS): 60.5 µM
TGI (HOP-92 NSCLC): 33.4 µM
TGI (SNB-19 CNS): > 100 µM
TGI (SF-295 CNS): > 100 µM
TGI (M14 melanoma): 90.9 µM
TGI (NCI/ADR-RES ovarian): > 100 µM
TGI (OVCAR-5 ovarian): 86.7 µM
TGI (HS 578T breast): > 100 µM
TGI (HL-60(TB) leukemia): 53.2 µM
TGI (HT29 colon): 62.9 µM
TGI (UO-31 renal): > 100 µM
